Experimental data taken from patent publication US10806121B2, “Animal litter containing a pheromone composition” (Sergeant's Pet Care Products, LLC, priority 2014, dated 2020).

Experiments:
[1] = tested on: cats; assay: Study 1: cat litter preference, pheromone-treated litter versus control litter; type: in vivo
Protocol: In Study 1, four different treatments were tested: Androstenone (ANDRO); cat urinary pheromone, 3-mercapto-3-methyl-1-butanol (CAT); rabbit pheromone, 2-methylbut-2-enal (RP); and both the cat urinary pheromone and the rabbit pheromone (CAT+RP). 40 individual cats were used in this study to assess their preference to or aversion from a control litter versus a litter under one of the four treatments. Each treatment was tested with 10 cats. Litter was divided into 3 lb aliquots, and each aliquot was either used as a control or was mixed with a pheromone (or a pheromone combination) to be tested at a level of 10 μg/3-lb (or 7.3 μg/kg).
On Day 0, each cat was placed into an assigned chamber randomly placed with two litter boxes, one control and one treated. Each of the two litter boxes was weighed and the weight was recorded. The camera in the chamber was properly aligned to give a full view of the chamber and started taping on Day 0. On Day 1, 24 hours after the start of taping on Day 0, each of the two litter boxes in the chamber was weighed and the weight was recorded. On Day 2, 48 hours after the start of taping on Day 0, each of the two litter boxes in the chamber was again weighed. Litter can be disposed of after weighing on Day 2, and the camera was then turned off. The weights of the litter boxes over the 48 hours were used to determine whether the litter was used or not, and at which preference level.
The data were expressed as both a percentage preference (% of the cats using the treated litter in each treatment group) and by the weight of the litter (the litter gets heavier as it is soiled). It was expected that if the added pheromone had no effect on litter preference, 50% of the cats would use the treated litter and 50% would use the control litter. […] Further, the weight difference between a control litter or litter under treatment was used to show the relative strength of the effect of a particular treatment on cat's litter use behavior. During the study, some cats (N=3; 2 in CAT+RP and 1 in RP) spilled their litter and their data were unreliable and were not included.

[2] = tested on: cats; assay: Study 3: 24-hour behavior of the most aggressive intact male cat pairs, CON litter versus RP litter; type: in vivo
Protocol: During the studies, cat behavior was captured on video for the duration of the 24- or 48-hour period depending on the specific study. Red lights were used at night to allow for continuous observation. A scan sampling method was used to record cat behaviors each 5 minutes. The recorded videos were subsequently reviewed and analyzed in each 5-minute scan sample, with tape playing 30 frames per second. At each 5-minute time point, each cat was categorized as anxious or relaxed. Aggression or litter box usage occurred between 5-minute periods were also noted. Because each scan sample is of 5-minute period, a total of 24 observations for each individual behavior are possible for each 2 hours. The instances of an individual behavior (An; n=1, 2, 3, . . . 24) in each 5-minute period were totaled for instances in each 2 hours (Bm=ΣAn, n=1, 2, 3, . . . 24; m=1, 2, 3, . . . 12) over 24 hours. The behavioral score for each 2-hour period is ΣAn/24 (n=1, 2, 3, . . . , 24). A behavioral score for a 24-hour period is ΣBm/12 (m=1, 2, 3, . . . 12). Among all behavior assessed, aggression, in-litter-box and anxiety were scored as yes or no during each 5 minutes (An=1 or 0; n=1, 2, 3, . . . 24). In addition, anxiety was measured as a percentage of the total time that the cat was experiencing anxiety. As such the anxiety related behavioral score for a 24-hour period is 0.347×ΣBm (%) (Bm=ΣAn(%), n=1, 2, 3, . . . 24; m=1, 2, 3, . . . 12), which reflects the percentage of time over 24 hours that the cats are experiencing anxiety. Moreover, when ranking cat pairs based on their level of aggression, the sum of the aggression scores of the individual cats in the pair was used to rank the cat pairs. Behavior data (behavioral scores) were further analyzed by Least Squares Analysis of variance using SAS (2011, SAS Inst., Inc., Cary, N.C.) software and the p-diff general linear model procedures to assess treatment differences within each time period. This statistical model included effects of treatment (TRT), cat-pair within treatment (TRT*CAT), time (HR), treatment by time (TRT*HR) and residual error (SE; used to test remaining effects). The most aggressive eight pairs of intact male cats from study 2 (Table, the pairs ranked 1 and 2-9) were selected for this 24-hour study, which was designed to assess if and how 2-methylbut-2-enal containing cat litter affects the multiple cats placed in one single room. Between studies 2 and 3, cat pairs had been separated for at least 12 weeks. Control (CON) litter and rabbit pheromone (RP) litter were similarly prepared as illustrated in Study 2. Each pair of cats was placed in a kennel containing one food dish, one water dish, and one litter box. Food and water was available ad libitum during the study. […] Side fences were chain linked. A total of 4 kennels were placed in one single room, and two rooms were utilized for eight pairs of cats. Cat behaviors were captured on video for the duration of the 24-hour period. Red lights were used at night to allow for continuous observation. The study schedule was as follows: • (1) 0 hour—Add 3 lb. aliquot of CON litter to a clean litter box and weigh the litter box; place a CON litter box in each of the 4 kennels in Room One. Before placing a designated cat pair in each of the kennels, weigh the cats. Start the video taping. • (2) 0 hour—Add 3 lb. aliquot of RP litter to a clean litter box and weigh; place RP litter boxes in 4 kennels in a separate Room Two; weigh cats; place designated pairs in kennels; and start the video taping. • (3) 24-hour—Remove and weigh all litter boxes; weigh all cats. Video records were obtained and reviewed for summary and analyses. At the 24-hour point of time, it was noted if any soiling had occurred outside of the litter box. Any social behavioral problems of the cats were also manually recorded, despite that video records provided a much more precise record of cat behaviors. Cat behavior of each pair was captured on video for the duration of the 24-hour period. […]

[3] = treated versus control litter weight after 2 days

Compound: C/C=C(\C)C=O [RP, 2-methylbut-2-enal]
- increase of litter attraction ([1]; 7 out of 9 cats chose treated litter): more than 3.5 times
- percentage preference (% of the cats using the treated litter) ([1]; litter treated at 10 μg/3-lb (7.3 μg/kg), choice against control litter over 48 hours, 50% = no effect): 78%
- Litter Type Use, g, TRT (weights of litter after 2 days) ([1]; treated litter box, 10 μg/3-lb, SE = 0.023): 0.76 g
- Relative Difference, % [1, 3]: 138%
- Significantly Different [1, 3]: Yes
- effect on cats' litter preference ([1]; treated versus control litter, 48 hours): highly preferred over the control litter
- aggression away from litter box, % of the observations ([2]; 0-2 hour period, CON litter 25%, P<0.01): 5-6%
- aggression near litter box, % of the observations ([2]; 0-2 hour period, CON litter more than 40%, P<0.01): 2-3%
- aggression away from litter box, % of the observations ([2]; 2-4 hour period, CON litter 23-24%, P<0.01): 4%
- lying/sitting - touching versus CON litter ([2]; 6-8 hour period, P=0.07): tendency to sit or lie in contact
- anxiety versus CON litter ([2]; 8-10 hour period, P=0.06): tendency to be more anxious
- litter box use versus CON litter ([2]; 8-10 hour period, P=0.10): tended to use the litter box more often
- anxiety versus CON litter ([2]; 10-12 hour period, P<0.01): significantly more anxious
- neutral social interaction versus CON litter ([2]; 10-12 hour period, P<0.01): significantly more neutral (non-aggressive) social interactions
- litter box use versus CON litter ([2]; 12-14 hour period, P<0.01): Cats experiencing CON litter used the litter box significantly more
- anxiety versus CON litter ([2]; 14-16 hour period, P=0.01): significantly more anxious
- anxiety versus CON litter ([2]; 16-18 hour period, P=0.03): significantly more anxious
- lying/sitting - touching versus CON litter ([2]; 16-18 hour period, P=0.05): tended to sit or lie in contact less
- anxiety versus CON litter ([2]; 18-20 hour period, P=0.03): significantly more anxious
- litter box use versus CON litter ([2]; 18-20 hour period, P=0.03): Cats experiencing CON litter used the litter box significantly more
- lying/sitting - touching versus CON litter ([2]; 20-22 hour period, P=0.01): significantly higher
- lying/sitting - touching versus CON litter ([2]; 22-24 hr period, P=0.04): tended to sit or lie in contact less
- duration of aggression control ([2]; RP in the litter around 0.0004% to 0.0006% (w/w)): 6 to 8 h
- Behavior score: Head in food/H2O dish ([2]; RP litter (3% (w/w) beads with 0.02% (w/w) 2-methylbut-2-enal), 24 hours, 4 cat pairs, CON 0.85, TRT P-Value 0.16): 0.57
- Behavior score: Grooming other ([2]; RP litter, 24 hours, 4 cat pairs, CON 0.03, TRT P-Value 0.36): 0.00
- Behavior score: Neutral social interaction ([2]; RP litter, 24 hours, 4 cat pairs, CON 0.10, TRT P-Value 0.82): 0.14
- Behavior score: In litter box - using ([2]; RP litter, 24 hours, 4 cat pairs, CON 0.31, TRT P-Value 0.23): 0.20
- Behavior score: Grooming self ([2]; RP litter, 24 hours, 4 cat pairs, CON 0.56, TRT P-Value 0.90): 0.52
- Behavior score: Lying/sitting - touching ([2]; RP litter, 24 hours, 4 cat pairs, CON 0.73, TRT P-Value 0.92): 0.64
- Behavior score: Play ([2]; RP litter, 24 hours, 4 cat pairs, CON 0.84, TRT P-Value 0.89): 0.92
- Behavior score: Sleeping ([2]; RP litter, 24 hours, 4 cat pairs, CON 0.95, TRT P-Value 0.59): 0.63
- Behavior score: In litter box - not using ([2]; RP litter, 24 hours, 4 cat pairs, CON 1.63, TRT P-Value 0.74): 2.34
- Behavior score: Aggression ([2]; RP litter, 24 hours, 4 cat pairs, CON 3.55, TRT P-Value 0.37): 2.01
- Behavior score: Locomotion ([2]; RP litter, 24 hours, 4 cat pairs, CON 5.50, TRT P-Value 0.52): 4.34
- Behavior score: Lying/sitting - not touching ([2]; RP litter, 24 hours, 4 cat pairs, CON 14.98, TRT P-Value 0.79): 15.53
- Behavior score: Anxiety (%) ([2]; RP litter, 24 hours, 4 cat pairs, CON 17.00, TRT P-Value 0.56): 25.00%
- weight added to litter box ([2]; RP litter, CON cats 0.15 kg, SE=0.02 kg, change not significant, litter spilled): 0.07 kg/day
- overall RP treatment effect on behaviors over the full 24 hours ([2]; RP versus CON litter, all behaviors of Table 10): None of the behaviors evaluated over the full 24 hours were significantly changed
- anxiety versus CON litter ([2]; first 2 hour period, P=0.04): significantly less anxious
- aggression patterns versus CON litter ([2]; first 6 hours after cats were placed together, P<0.01): significantly lower
